Data reported in publication PMC9804470, “A Formylglycine‐Peptide for the Site‐Directed Identification of Phosphotyrosine‐Mimetic Fragments” (Chemistry (Weinheim an Der Bergstrasse, Germany), 2022).
Like-named read-outs stand apart in the source and are kept apart here. *1 amine or outer side, *2 acyl side, *3 side chain or, on linkers, in order; H or OH if unused. Where a SMILES comes first, the peptide text is derived from it. [ ]: non-standard residue; d: D form. The star is where a group is joined. ξ: configuration not given here. F2Pmp = N[C@@H](Cc1ccc(C(F)(F)P(=O)(O)O)cc1)C(=O)O; X3 = O=C1NC(=O)C(CC(N[*:1])C(=O)[*:2])C(=O)N1; X2 = O=C(O)COc1ccc(*)cc1; ξDap = NCC(N)C(=O)O

Columns and labels:
[1] = test system: HGF‐induced tyrosine phosphorylation of ERK 1/2 in HeLa cells; test: Western blot of p-ERK in HGF-stimulated HeLa cells; type: cell-based; conditions: HGF 20 ng/well, 1 h treatment, Western blot p-ERK
Method: Cellular experiments: HeLa cells were cultivated in DMEM buffer with 10 % FCS in 75 cm^2 cell culture flasks at 37 °C, 5 % CO2. At confluency of about 75 %, cells were seeded in a density of 250,000 cells/mL in 6‐well plates and incubated for 24 h. Subsequently, medium was removed and replaced by DMEM buffer with 0.1 % BSA (1 mL per well) and incubated for another 16 h. Hepatocyte growth factor (HGF, 20 ng/well) and test compounds in different final concentrations (1 μL, in DMSO) were added. Control wells received the same amount of DMSO (final concentration 0.1 %) or no addition. Plates were incubated for 1 h, then washed with cold PBS and shaken with lysis buffer (mPer reagent ThermoScientific # 78501 with 1 mM NaF, 2 mM Na3VO4, 25× protease inhibitor) for 5 min. Cell lysates were transferred to Eppendorf cups and centrifuged at 4 °C with 10,000 g for 10 min. […] The blot was incubated with anti‐phospo‐ERK as primary antibody (Cell Signaling # 9106, dilution 1 : 2000 in TBS‐Tween/ 2 % BSA) overnight at 4 °C, washed 3×5 min with TBS‐Tween, and incubated with anti‐mouse IgG‐hrp as secondary antibody (Santa Cruz # sc2031, 1 : 6000 in TBS‐ Tween/ 2 % BSA, RT, 1.5 h). The blot was again washed 3×5 min with TBS‐Tween and imaged with the ECL system (ThermoScientific # 34080) at Syngene PXi Imager. From the same lysis sample, under the same conditions, ERK 1/2 and β‐tubulin were blotted. For β‐tubulin, the antibody incubation time was adjusted to 2 h at RT.

[2] = molecular target: T1, catalytic domain of human SHP2 (Homo sapiens, UniProt Q06124); test: Enzyme activity assay of SHP2 catalytic domain with fluorogenic substrate DiFMUP; type: biochemical; conditions: catalytic domain of SHP2, DiFMUP, from IC50 by Cheng-Prusoff; GS-493 sentence carries ref 26; read-out: KI SHP2
T1 construct: catalytic domain of human SHP2 (amino acids 225–541); His10 (N); made in house; host or cells: E. coli B21 (DE3)
T1 sequence (Q06124 225-541): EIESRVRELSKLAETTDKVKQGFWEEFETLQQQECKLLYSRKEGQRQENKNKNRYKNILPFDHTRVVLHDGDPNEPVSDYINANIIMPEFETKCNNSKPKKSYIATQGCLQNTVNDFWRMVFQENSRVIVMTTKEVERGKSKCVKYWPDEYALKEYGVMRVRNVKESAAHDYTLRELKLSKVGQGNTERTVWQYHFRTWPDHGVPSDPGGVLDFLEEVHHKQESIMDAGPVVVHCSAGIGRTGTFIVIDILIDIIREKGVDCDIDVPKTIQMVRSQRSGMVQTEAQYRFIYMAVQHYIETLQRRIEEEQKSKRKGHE
Method: Enzyme activity assays of SHP2 and PTP1B: The catalytic activity of SHP2 catalytic domain and PTP1B were monitored using the fluorogenic substrate DiFMUP (6,8‐difluoro‐4‐methylumbelliferyl phosphate). Phosphatase reactions were performed at room temperature in 384‐well black plate, clear flat bottom, low flange, non‐binding surface (Corning, Cat# 3766) using a final volume of 20 μL and the following assay buffer conditions: 50 mM MOPS, pH=6.5, 200 mM NaCl, 50 μM TCEP, 0.03 % Tween‐20 (freshly added prior to each measurement). Test compounds were dissolved in DMSO or buffer at stock concentrations of 50, 20 or 10 mM and serially diluted. Enzyme (5 nM PTP1B or 2.5 nM SHP2 catalytic domain) and different concentrations of the tested compounds were incubated in buffer for 30–60 min at room temperature. […] Enzymatic reactions were started by adding DiFMUP (Invitrogen, cat# D6567) concentrations matching the experimentally determined KM values of the enzymes of 67 μM (PTP1B) or 72 μM (SHP2). Samples were excited at a wavelength of 360 nm and emitted fluorescence was recorded at 460 for 10 min using a microplate reader (infinite M1000 Pro, Tecan). Initial slope of fluorescence was determined in triplicate and IC50 values were calculated with GraphPad Prism 5. Determined IC50 values were converted into the corresponding KI values applying the Cheng Prusoff equation KI =IC50 /(1+[S]/KM ).

[3] = molecular target: T2, catalytic domain of human PTP1B (Homo sapiens, UniProt P18031); test: Enzyme activity assay of PTP1B with fluorogenic substrate DiFMUP; type: biochemical; conditions: SD
T2 construct: catalytic domain of human PTP1B (amino acids 1–321); His7 (N, cleaved yes); made in house; host or cells: E. coli Rosetta (DE3)
T2 sequence (P18031 1-321): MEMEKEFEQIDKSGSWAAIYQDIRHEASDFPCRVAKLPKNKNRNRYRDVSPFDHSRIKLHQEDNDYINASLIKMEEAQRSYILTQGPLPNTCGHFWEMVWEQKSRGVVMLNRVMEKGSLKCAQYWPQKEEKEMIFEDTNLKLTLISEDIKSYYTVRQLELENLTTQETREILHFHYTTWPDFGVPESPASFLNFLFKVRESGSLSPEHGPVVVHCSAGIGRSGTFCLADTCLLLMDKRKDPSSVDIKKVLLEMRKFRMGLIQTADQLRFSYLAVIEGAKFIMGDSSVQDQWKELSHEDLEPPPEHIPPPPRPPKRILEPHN
Method: Protein Expression and purification: DNA encoding the catalytic domain of human PTP1B (amino acids 1–321) was subcloned into the pQLinkH vector. The gene encoding the N‐terminal His7‐tagged protein was over‐expressed at 17 °C in E. coli Rosetta (DE3). […] The His7‐tag was cleaved with tobacco etch virus protease at 20 °C prior to the gel‐filtration step. The catalytic domain of human SHP2 (amino acids 225–541) was purified from E. coli B21 (DE3). The overexpressed protein was fused to an N‐terminal His10‐tag. Cells were harvested and resuspended in 25 mM Tris‐HCl (pH=7.5), 50 mM NaCl, 1 % (v/v) Triton X‐100, 10 % (v/v) glycerol, 1 mM DTT. After cell lysis, debris was removed by centrifugation at 12,000 rpm for 30 min. The supernatant was filtered prior to affinity purification with Ni‐NTA agarose (Qiagen). The slurry was washed with 50 mM Tris‐HCl (pH=8.0), 500 mM NaCl supplemented with 25 mM imidazole. Reasonably pure protein was eluted with 200–300 mM imidazole. The purification was completed by size‐exclusion chromatography with a Superdex 75 16/600 column (GE Healthcare) equilibrated with 20 mM HEPES‐NaOH (pH=7.5), 50 mM NaCl, 1 mM DTT.
(§1) Enzyme activity assays of SHP2 and PTP1B: The catalytic activity of SHP2 catalytic domain and PTP1B were monitored using the fluorogenic substrate DiFMUP (6,8‐difluoro‐4‐methylumbelliferyl phosphate). Phosphatase reactions were performed at room temperature in 384‐well black plate, clear flat bottom, low flange, non‐binding surface (Corning, Cat# 3766) using a final volume of 20 μL and the following assay buffer conditions: 50 mM MOPS, pH=6.5, 200 mM NaCl, 50 μM TCEP, 0.03 % Tween‐20 (freshly added prior to each measurement). Test compounds were dissolved in DMSO or buffer at stock concentrations of 50, 20 or 10 mM and serially diluted. Enzyme (5 nM PTP1B or 2.5 nM SHP2 catalytic domain) and different concentrations of the tested compounds were incubated in buffer for 30–60 min at room temperature. Measurements were performed with a final concentration of 2.5 % DMSO unless stated otherwise at 37 °C and were performed in triplicate. Enzymatic reactions were started by adding DiFMUP (Invitrogen, cat# D6567) concentrations matching the experimentally determined KM values of the enzymes of 67 μM (PTP1B) or 72 μM (SHP2). Samples were excited at a wavelength of 360 nm and emitted fluorescence was recorded at 460 for 10 min using a microplate reader (infinite M1000 Pro, Tecan). Initial slope of fluorescence was determined in triplicate and IC50 values were calculated with GraphPad Prism 5. Determined IC50 values were converted into the corresponding KI values applying the Cheng Prusoff equation KI =IC50 /(1+[S]/KM ).

PTP1B = molecular target: T3, PTP1B (Homo sapiens, UniProt P18031); test: Dynamic ligation screening of nucleophilic fragments with formylglycine peptide 3, PTP1B; type: biochemical; conditions: 3 100 μM pre-incubated 5 min, fragment 200 μM, 30 min RT before DiFMUP, triplicates
T3 construct: catalytic domain of human PTP1B (amino acids 1–321); His7 (N, cleaved yes); made in house; host or cells: E. coli Rosetta (DE3)
T3 sequence (P18031 1-321): T2 sequence (P18031 1-321)
Method: as §1
Dynamic ligation screening of nucleophilic fragments with 3: Under assay conditions described above, PTP1B or SHP2 were pre‐incubated with 3 (100 μM) for 5 min. Subsequently, (200 μM) of the respective fragments were added and the resulting mixtures were incubated for 30 min at RT, prior to DiFMUP addition.

`O=C(O)COc1ccc(N/N=C2\C(=O)N(c3ccc([N+](=O)[O-])cc3)N=C2c2ccc([N+](=O)[O-])cc2)cc1` [Compound 23, (Z)‐2‐(4‐(2‐(1,3‐Bis‐(4‐nitrophenyl)‐5‐oxo‐1,5‐dihydro‐4H‐pyrazol‐4‐ylidene)‐hydrazinyl)‐phenoxy)‐acetic acid] was tested, and the “Concentration giving (complete) dephosphorylation of Erk / inhibition of Erk phosphorylation” value [1] was over 100 µM and the Ki [2] was 0.275 µM.
`CC(=O)N[C@@H](CC(=O)O)C(=O)N[C@@H](C)C(=O)N[C@@H](CC(=O)O)C(=O)N[C@@H](CCC(=O)O)C(=O)NC(CNc1ccc(OCC(=O)O)cc1)C(=O)N[C@@H](CC(C)C)C(N)=O` (stereo partly drawn) [Compound 16] (Ac-DADE[ξDap](X2)L-NH2) gave a Ki ([3]; read-out: KI PTP1B) of 213 ± 21 µM.
In the case of `Nc1ccccc1` [aniline, reference compound], the “Enhancement of inhibition of PTP1B by fragment in combination with peptide 3 (fragment ligation assay)” value (from here on “Enhancement of inhibition of PTP1B”) (PTP1B) is reported as “entirely inactive”.
With `CC(=O)N[C@@H](CC(=O)O)C(=O)N[C@@H](C)C(=O)N[C@@H](CC(=O)O)C(=O)N[C@@H](CCC(=O)O)C(=O)N[C@@H](Cc1ccc(C(F)(F)P(=O)(O)O)cc1)C(=O)N[C@@H](CC(C)C)C(N)=O` [Compound 2, Ac-DADE-(PDFM-F)-L-NH2, reference compound] (Ac-DADE[F2Pmp]L-NH2) the Ki ([3]; read-out: KI PTP1B) was 1.4 ± 0.4 µM.
With `Nc1ccc(C(F)(F)F)cc1` [Compound F8, 4‐amino‐phenyl‐trifluoromethane] the “Enhancement of inhibition of PTP1B” value (PTP1B) was “inactive”.
For `Nc1ccc(C(=O)O)cc1` [Compound F5, 4‐amino benzoic acid], the “Enhancement of inhibition of PTP1B” value (PTP1B) was “inactive”.
`CC(=O)N[C@@H](CC(=O)O)C(=O)N[C@@H](C)C(=O)N[C@@H](CC(=O)O)C(=O)N[C@@H](CCC(=O)O)C(=O)NC(CC1C(=O)NC(=O)NC1=O)C(=O)N[C@@H](CC(C)C)C(N)=O` (stereo partly drawn) [Compound 17] (Ac-DADE[X3]L-NH2) showed a Ki [3] of 123 ± 16 µM.
